Source: ChEMBL document CHEMBL5291721, “A preclinical secondary pharmacology resource illuminates target-adverse drug reaction associations of marketed drugs” (Nat Commun, 2023)

What was measured:
[1] = target: T1, 5-hydroxytryptamine receptor 1A (Homo sapiens, UniProt P08908); type: functional, cell-based
T1 sequence (P08908 whole entry): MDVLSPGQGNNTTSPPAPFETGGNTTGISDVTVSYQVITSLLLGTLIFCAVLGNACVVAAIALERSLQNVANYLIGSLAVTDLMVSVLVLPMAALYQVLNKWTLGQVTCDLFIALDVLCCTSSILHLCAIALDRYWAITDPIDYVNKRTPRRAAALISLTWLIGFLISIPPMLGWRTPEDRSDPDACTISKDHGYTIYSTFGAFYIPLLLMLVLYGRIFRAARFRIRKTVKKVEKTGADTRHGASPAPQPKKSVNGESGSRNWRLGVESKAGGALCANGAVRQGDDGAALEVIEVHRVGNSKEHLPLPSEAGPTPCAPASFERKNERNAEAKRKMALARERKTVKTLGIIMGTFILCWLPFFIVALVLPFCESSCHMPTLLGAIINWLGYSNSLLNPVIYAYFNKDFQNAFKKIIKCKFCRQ

[2] = target: 5-hydroxytryptamine receptor 2A (Homo sapiens, UniProt P28223); type: functional, cell-based
[3] = target: T1, 5-hydroxytryptamine receptor 1A; type: functional, cell-based; remark: listed apart in the source
[4] = target: T2, Sodium-dependent dopamine transporter (Homo sapiens, UniProt Q01959)
[5] = target: T3, Gamma-aminobutyric acid receptor subunit alpha-1 (Rattus norvegicus, UniProt P62813)
[6] = target: D(1A) dopamine receptor (Homo sapiens, UniProt P21728); type: functional, cell-based
[7] = target: D(3) dopamine receptor (Homo sapiens, UniProt P35462)
[8] = target: T3, Gamma-aminobutyric acid receptor subunit alpha-1; type: functional
[9] = target: Kappa-type opioid receptor (Homo sapiens, UniProt P41145)
[10] = target: T4, Alpha-2C adrenergic receptor (Homo sapiens, UniProt P18825); type: functional
T4 sequence (P18825 whole entry): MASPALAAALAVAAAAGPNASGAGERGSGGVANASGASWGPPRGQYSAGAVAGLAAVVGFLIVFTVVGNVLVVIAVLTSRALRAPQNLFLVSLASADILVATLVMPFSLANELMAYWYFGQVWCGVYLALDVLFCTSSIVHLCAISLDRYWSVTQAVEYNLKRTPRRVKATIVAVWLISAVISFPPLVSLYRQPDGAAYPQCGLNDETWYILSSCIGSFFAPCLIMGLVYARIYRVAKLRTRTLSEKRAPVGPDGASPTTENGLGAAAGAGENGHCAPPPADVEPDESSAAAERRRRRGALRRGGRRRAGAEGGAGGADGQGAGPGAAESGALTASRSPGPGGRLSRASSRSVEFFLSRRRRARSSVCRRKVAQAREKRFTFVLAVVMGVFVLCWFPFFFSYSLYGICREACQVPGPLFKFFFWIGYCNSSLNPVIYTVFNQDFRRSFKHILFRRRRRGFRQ

[11] = target: Adenosine receptor A2a (Homo sapiens, UniProt P29274)
[12] = target: T5, Alpha-2A adrenergic receptor (Homo sapiens, UniProt P08913); type: functional, cell-based
T5 sequence (P08913 whole entry): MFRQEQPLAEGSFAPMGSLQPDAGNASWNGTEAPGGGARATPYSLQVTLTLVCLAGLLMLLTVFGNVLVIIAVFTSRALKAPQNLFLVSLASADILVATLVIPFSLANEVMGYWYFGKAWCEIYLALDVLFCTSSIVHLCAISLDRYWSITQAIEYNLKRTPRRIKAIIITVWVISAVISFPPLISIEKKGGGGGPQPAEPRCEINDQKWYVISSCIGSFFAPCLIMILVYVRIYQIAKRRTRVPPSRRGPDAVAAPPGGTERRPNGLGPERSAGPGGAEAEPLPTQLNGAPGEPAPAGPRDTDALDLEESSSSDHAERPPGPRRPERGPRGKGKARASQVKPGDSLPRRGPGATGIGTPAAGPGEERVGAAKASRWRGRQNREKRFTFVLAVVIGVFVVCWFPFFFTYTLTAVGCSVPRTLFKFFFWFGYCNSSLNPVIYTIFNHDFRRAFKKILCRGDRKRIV

[13] = target: T6, Endothelin-1 receptor (Homo sapiens, UniProt P25101)
T6 sequence (P25101 whole entry): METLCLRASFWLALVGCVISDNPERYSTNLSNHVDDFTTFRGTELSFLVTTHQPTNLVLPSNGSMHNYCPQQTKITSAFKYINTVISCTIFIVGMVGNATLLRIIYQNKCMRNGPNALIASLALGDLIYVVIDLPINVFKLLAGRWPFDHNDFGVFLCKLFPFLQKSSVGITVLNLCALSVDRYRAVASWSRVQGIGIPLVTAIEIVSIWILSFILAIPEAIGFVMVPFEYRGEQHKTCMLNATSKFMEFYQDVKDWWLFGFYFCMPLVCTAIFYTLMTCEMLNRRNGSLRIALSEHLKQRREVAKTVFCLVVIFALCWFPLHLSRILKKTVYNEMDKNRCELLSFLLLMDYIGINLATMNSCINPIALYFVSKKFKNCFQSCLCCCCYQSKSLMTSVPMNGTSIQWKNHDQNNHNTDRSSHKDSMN

[14] = target: T7, Cannabinoid receptor 1 (Homo sapiens, UniProt P21554); type: functional, cell-based
[15] = target: T7, Cannabinoid receptor 1; type: functional, cell-based; remark: listed apart in the source
[16] = target: T8, Histamine H3 receptor (Homo sapiens, UniProt Q9Y5N1)
[17] = target: T2, Sodium-dependent dopamine transporter; remark: listed apart in the source
[18] = target: Mu-type opioid receptor (Homo sapiens, UniProt P35372)
[19] = target: T8, Histamine H3 receptor; remark: listed apart in the source
Note: assay procedure not described here.

T8 sequence (Q9Y5N1 whole entry): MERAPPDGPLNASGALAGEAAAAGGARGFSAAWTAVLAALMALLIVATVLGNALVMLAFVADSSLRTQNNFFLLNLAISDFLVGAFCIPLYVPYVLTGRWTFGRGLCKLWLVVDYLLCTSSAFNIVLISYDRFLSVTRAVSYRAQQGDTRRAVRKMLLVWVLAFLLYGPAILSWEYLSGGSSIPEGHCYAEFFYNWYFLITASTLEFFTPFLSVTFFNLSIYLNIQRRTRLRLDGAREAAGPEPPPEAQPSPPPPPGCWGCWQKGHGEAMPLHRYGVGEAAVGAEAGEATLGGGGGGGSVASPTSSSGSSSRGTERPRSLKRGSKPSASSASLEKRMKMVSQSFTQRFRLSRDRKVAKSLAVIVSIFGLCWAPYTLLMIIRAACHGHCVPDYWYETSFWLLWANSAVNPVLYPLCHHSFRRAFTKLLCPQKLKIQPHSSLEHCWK
Chain of D(1A) dopamine receptor (P21728 whole entry): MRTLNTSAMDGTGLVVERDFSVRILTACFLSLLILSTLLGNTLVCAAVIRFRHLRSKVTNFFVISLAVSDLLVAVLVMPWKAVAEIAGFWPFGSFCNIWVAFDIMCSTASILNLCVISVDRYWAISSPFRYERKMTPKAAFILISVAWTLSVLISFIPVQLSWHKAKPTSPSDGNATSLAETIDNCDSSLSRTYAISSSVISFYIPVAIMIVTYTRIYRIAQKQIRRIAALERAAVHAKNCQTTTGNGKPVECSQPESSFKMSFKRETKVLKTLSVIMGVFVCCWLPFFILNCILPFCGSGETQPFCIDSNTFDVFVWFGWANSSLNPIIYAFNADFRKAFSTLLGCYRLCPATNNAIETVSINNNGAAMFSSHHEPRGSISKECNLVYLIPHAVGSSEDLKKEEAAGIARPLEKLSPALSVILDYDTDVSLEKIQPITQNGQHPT
Chain of 5-hydroxytryptamine receptor 2A (P28223 whole entry): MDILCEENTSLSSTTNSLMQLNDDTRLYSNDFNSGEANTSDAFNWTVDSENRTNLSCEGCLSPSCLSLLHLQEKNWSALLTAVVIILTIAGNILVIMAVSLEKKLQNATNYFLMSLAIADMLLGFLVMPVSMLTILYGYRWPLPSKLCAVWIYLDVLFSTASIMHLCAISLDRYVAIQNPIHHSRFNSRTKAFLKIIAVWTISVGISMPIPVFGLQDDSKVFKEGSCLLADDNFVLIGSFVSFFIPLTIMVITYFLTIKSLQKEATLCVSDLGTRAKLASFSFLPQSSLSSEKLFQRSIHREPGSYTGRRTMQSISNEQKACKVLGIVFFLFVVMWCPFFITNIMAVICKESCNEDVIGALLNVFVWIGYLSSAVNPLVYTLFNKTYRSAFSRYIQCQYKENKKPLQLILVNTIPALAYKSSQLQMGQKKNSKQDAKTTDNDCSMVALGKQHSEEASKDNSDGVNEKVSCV
Chain of Kappa-type opioid receptor (P41145 whole entry): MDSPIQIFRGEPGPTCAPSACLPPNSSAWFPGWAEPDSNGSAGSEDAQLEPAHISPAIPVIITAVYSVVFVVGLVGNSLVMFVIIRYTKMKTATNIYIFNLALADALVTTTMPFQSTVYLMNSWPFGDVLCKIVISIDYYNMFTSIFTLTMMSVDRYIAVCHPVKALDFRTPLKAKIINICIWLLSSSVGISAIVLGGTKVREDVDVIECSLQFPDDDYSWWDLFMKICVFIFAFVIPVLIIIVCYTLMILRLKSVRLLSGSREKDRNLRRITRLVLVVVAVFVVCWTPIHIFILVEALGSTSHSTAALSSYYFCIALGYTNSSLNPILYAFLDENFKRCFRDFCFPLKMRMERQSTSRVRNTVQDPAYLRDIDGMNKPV
Chain of Adenosine receptor A2a (P29274 whole entry): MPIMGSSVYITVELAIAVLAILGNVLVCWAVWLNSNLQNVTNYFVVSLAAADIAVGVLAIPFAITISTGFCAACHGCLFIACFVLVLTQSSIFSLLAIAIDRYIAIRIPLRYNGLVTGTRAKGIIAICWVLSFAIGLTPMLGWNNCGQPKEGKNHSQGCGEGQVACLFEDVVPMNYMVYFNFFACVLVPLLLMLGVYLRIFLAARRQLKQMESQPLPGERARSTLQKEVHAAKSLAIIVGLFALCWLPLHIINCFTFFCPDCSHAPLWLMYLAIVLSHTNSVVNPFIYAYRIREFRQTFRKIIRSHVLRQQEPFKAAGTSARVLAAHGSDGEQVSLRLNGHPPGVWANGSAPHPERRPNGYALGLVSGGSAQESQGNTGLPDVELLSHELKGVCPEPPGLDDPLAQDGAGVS
T3 sequence (P62813 whole entry): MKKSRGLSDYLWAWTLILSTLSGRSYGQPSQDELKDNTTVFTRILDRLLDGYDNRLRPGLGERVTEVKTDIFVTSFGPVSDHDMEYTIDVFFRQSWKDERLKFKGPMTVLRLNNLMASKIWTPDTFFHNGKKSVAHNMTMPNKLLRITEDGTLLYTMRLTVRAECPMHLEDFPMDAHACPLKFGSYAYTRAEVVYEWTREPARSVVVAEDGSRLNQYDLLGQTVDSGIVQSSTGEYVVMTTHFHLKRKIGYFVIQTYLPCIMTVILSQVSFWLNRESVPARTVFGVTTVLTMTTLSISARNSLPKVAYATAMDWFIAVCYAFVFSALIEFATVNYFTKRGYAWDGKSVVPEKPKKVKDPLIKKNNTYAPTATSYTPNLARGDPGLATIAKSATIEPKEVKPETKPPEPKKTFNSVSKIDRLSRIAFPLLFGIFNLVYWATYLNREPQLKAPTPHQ
T7 sequence (P21554 whole entry): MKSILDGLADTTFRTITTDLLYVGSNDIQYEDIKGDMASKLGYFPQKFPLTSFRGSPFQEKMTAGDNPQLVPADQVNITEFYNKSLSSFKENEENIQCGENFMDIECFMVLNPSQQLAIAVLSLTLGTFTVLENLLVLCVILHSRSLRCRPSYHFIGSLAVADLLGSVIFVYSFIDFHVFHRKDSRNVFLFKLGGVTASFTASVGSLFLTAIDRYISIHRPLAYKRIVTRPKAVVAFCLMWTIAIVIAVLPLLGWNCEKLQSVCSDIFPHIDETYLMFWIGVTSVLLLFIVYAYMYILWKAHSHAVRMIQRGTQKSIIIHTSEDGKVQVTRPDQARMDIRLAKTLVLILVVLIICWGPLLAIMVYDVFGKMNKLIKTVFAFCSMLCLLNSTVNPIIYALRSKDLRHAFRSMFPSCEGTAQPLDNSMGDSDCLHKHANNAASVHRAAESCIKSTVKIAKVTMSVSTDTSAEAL
T2 sequence (Q01959 whole entry): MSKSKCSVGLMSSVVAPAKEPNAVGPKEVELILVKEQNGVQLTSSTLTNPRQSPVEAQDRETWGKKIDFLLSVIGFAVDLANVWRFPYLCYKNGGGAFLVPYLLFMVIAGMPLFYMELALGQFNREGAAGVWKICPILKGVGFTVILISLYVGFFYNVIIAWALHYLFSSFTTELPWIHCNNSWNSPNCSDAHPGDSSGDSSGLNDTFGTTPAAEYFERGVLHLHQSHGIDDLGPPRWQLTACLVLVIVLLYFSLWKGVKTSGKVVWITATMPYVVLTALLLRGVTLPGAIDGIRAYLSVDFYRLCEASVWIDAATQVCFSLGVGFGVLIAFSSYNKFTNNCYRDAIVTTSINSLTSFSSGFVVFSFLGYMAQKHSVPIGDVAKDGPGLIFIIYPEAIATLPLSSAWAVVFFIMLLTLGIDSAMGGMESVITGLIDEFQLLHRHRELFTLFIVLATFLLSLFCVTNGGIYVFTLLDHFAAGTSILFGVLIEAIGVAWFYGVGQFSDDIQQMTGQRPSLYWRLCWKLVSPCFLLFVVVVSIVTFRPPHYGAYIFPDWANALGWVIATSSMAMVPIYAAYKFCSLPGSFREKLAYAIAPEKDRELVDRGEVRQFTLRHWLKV
Chain of D(3) dopamine receptor (P35462 whole entry): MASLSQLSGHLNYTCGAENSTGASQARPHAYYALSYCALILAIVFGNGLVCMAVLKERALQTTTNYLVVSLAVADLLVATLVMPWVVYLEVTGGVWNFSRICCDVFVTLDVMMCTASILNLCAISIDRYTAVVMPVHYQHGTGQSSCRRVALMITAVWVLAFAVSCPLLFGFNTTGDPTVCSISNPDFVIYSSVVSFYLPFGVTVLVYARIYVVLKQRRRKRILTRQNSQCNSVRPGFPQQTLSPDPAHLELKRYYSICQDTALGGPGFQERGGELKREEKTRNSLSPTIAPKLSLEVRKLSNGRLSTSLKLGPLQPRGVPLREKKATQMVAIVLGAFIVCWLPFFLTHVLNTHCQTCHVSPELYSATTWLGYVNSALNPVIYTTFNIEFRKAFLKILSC
Chain of Mu-type opioid receptor (P35372 whole entry): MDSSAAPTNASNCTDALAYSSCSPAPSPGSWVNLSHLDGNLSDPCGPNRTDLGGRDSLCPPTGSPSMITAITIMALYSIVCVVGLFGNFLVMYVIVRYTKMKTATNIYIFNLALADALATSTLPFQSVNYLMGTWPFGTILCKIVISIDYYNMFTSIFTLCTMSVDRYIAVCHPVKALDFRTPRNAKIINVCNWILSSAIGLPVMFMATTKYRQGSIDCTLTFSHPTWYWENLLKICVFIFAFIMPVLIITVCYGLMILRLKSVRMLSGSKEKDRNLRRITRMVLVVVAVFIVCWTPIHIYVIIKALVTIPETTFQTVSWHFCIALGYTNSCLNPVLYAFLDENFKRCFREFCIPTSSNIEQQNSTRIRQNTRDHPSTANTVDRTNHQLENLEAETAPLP

AC50 [1] [µM]	AC50 [2] [µM]	AC50 [3] [µM]	AC50 [4] [µM]	AC50 [5] [µM]	AC50 [6] [µM]	AC50 [7] [µM]	AC50 [8] [µM]	AC50 [9] [µM]	AC50 [10] [µM]	AC50 [11] [µM]	AC50 [12] [µM]	AC50 [16] [µM]	SMILES	AC50 [13] [µM]	AC50 [14] [µM]	AC50 [15] [µM]	AC50 [17] [µM]	AC50 [18] [µM]	AC50 [19] [µM]
5.6	> 10	> 10	1.1	> 10	> 10	> 30	> 10	> 10	> 10	> 30	> 10	> 10	Cc1ccc(C(=O)c2cc(O)c(O)c([N+](=O)[O-])c2)cc1 [TOLCAPONE]	–	–	–	–	–	–
> 30	23	> 30	6.7	–	2.2	> 30	> 30	–	> 30	> 30	> 30	> 30	OCc1cc([C@@H](O)CNCCCCCCOCCOCc2c(Cl)cccc2Cl)ccc1O [VILANTEROL]	> 30	> 30	> 30	–	–	–

Further lines, the molecule ahead of its results:

SMILES	AC50 [1] [µM]	AC50 [2] [µM]	AC50 [3] [µM]	AC50 [4] [µM]	AC50 [5] [µM]	AC50 [6] [µM]	AC50 [7] [µM]	AC50 [8] [µM]	AC50 [9] [µM]	AC50 [10] [µM]	AC50 [11] [µM]	AC50 [12] [µM]	AC50 [16] [µM]	AC50 [13] [µM]	AC50 [14] [µM]	AC50 [15] [µM]	AC50 [17] [µM]	AC50 [18] [µM]	AC50 [19] [µM]
C[C@@H]1O[C@@H]1P(=O)(O)O [FOSFOMYCIN]	> 10	> 10	> 10	> 10	> 10	> 10	> 30	> 10	> 10	> 10	> 10	> 10	–	–	–	–	–	–	–
CC(C)Cc1ccc(CC(=O)O)cc1 [IBUFENAC]	> 30	> 30	> 30	> 30	–	> 30	> 30	> 30	–	> 30	> 30	> 30	> 30	> 30	> 30	> 30	–	–	–
CC(C(=O)O)c1ccc(N2CC=CC2)c(Cl)c1 (stereo not drawn) [PIRPROFEN]	> 10	> 30	> 10	> 10	> 10	> 10	> 10	> 10	> 10	> 10	> 30	> 10	> 10	> 30	> 30	> 30	> 30	> 30	> 30
O=C(NC[C@H]1CN(c2ccc(N3CCOCC3=O)cc2)C(=O)O1)c1ccc(Cl)s1 [RIVAROXABAN]	–	> 30	> 30	> 30	–	> 30	> 30	> 30	> 30	> 30	–	> 30	–	–	–	> 30	> 30	> 30	> 30
CC(C(=O)O)c1ccc(C(=O)c2cccs2)cc1 (stereo not drawn) [SUPROFEN]	> 10	> 10	> 10	> 10	> 10	> 10	> 30	> 10	> 10	> 10	> 10	> 10	> 10	–	–	–	–	–	–
